Assay results from ChEMBL document CHEMBL1201862, “PubChem BioAssay data set” (2004).
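Grown in 96-well plates, cells were treated for 48 hours with each compound at five concentrations. Insufficient inhibition: endpoint recorded as highest concentration tested. GI50 marks 50% less growth.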 The source made the active and inactive calls. Rule as the data show it: active = GI50 up to about 1.1 µM and inactive = higher.

Experiments:
Experiment in all cases: NCI-60 cell line screen, 48 h
[1] = test system: Malme-3M
[2] = test system: UACC-257
[3] = test system: CAKI-1
[4] = test system: OVCAR-8
[5] = test system: COLO 205
[6] = test system: NCI-H226
[7] = test system: Hs-578T
[8] = test system: BT-549
[9] = test system: HT-29
[10] = test system: 786-0
[11] = test system: A498
[12] = test system: KM12
[13] = test system: M14
[14] = test system: SF-539
[15] = test system: MDA-MB-435
[16] = test system: LOX IMVI
[17] = test system: DU-145
[18] = test system: T47D
[19] = test system: IGROV-1
[20] = test system: SK-MEL-28
[21] = test system: SF-268
[22] = test system: RPMI-8226
[23] = test system: EKVX
[24] = test system: OVCAR-3
[25] = test system: MCF7
[26] = test system: HCC 2998
[27] = test system: SF-295
[28] = test system: HCT-15
[29] = test system: TK-10
[30] = test system: SNB-19
[31] = test system: SK-MEL-2
[32] = test system: SW-620
[33] = test system: HOP-62
[34] = test system: HOP-92
[35] = test system: OVCAR-4
[36] = test system: HCT-116
[37] = test system: RXF 393
[38] = test system: A549
[39] = test system: SK-MEL-5
[40] = test system: MDA-MB-231
[41] = test system: K562
[42] = test system: MDA-N
[43] = test system: ACHN
[44] = test system: UO-31
[45] = test system: NCI/ADR-RES
[46] = test system: CCRF-CEM
[47] = test system: SK-OV-3
[48] = test system: UACC-62
[49] = test system: NCI-H460
[50] = test system: OVCAR-5
[51] = test system: NCI-H23
[52] = test system: PC-3
[53] = test system: NCI-H522
[54] = test system: MOLT-4
[55] = test system: SNB-75
[56] = test system: U-251
[57] = test system: HL-60
[58] = test system: SN12C

With NC1CCN(c2nc3ccccc3c3c2CCCC3)CC1 the GI50 [1] was 7.41 µM (inactive), the GI50 [2] was 2.1 µM (inactive) and the GI50 [3] was 5.77 µM (inactive). The GI50 [4] was 13.2 µM (inactive), the GI50 [5] was 1.67 µM (inactive) and the GI50 [6] was 10.2 µM (inactive). For the same compound, the GI50 [7] was 20.5 µM (inactive), the GI50 [8] was 12.7 µM (inactive) and the GI50 [9] was 2.11 µM (inactive). The GI50 [10] was 3.8 µM (inactive), the GI50 [11] was 10.3 µM (inactive) and the GI50 [12] was 4.07 µM (inactive). For the same compound, the GI50 [13] was 1.99 µM (inactive), the GI50 [14] was 3.33 µM (inactive) and the GI50 [15] was 2.2 µM (inactive). The GI50 [16] was 3.69 µM (inactive), the GI50 [17] was 11.9 µM (inactive) and the GI50 [18] was 2.18 µM (inactive). The GI50 [19] was 6.41 µM (inactive), the GI50 [20] was 2.73 µM (inactive) and the GI50 [21] was 12.5 µM (inactive). For the same compound, the GI50 [22] was 1.8 µM (inactive), the GI50 [23] was 5.9 µM (inactive) and the GI50 [24] was 11.9 µM (inactive). For the same compound, the GI50 [25] was 3.07 µM (inactive), the GI50 [26] was 1.73 µM (inactive) and the GI50 [27] was 10.1 µM (inactive). For the same compound, the GI50 [28] was 5.37 µM, the GI50 [29] was 10.7 µM (inactive) and the GI50 [30] was 8.67 µM (inactive). For the same compound, the GI50 [31] was 5.12 µM (inactive), the GI50 [32] was 2.75 µM (inactive) and the GI50 [33] was 15.1 µM (inactive). For the same compound, the GI50 [34] was 4.99 µM (inactive), the GI50 [35] was 1.38 µM (inactive) and the GI50 [36] was 4.01 µM (inactive). The GI50 [37] was 2.33 µM (inactive), the GI50 [38] was 9.44 µM (inactive) and the GI50 [39] was 2.57 µM (inactive). The GI50 [40] was 3.43 µM (inactive), the GI50 [41] was 1.62 µM (inactive) and the GI50 [42] was 2.97 µM (inactive). For the same compound, the GI50 [43] was 8.87 µM (inactive), the GI50 [44] was 4.05 µM (inactive) and the GI50 [45] was 12.2 µM (inactive). The GI50 [46] was 4.28 µM (inactive), the GI50 [47] was 12.6 µM (inactive) and the GI50 [48] was 1.95 µM (inactive). For the same compound, the GI50 [49] was 3.5 µM (inactive), the GI50 [50] was 6.32 µM (inactive) and the GI50 [51] was 14.1 µM (inactive). The GI50 [52] was 7.89 µM (inactive), the GI50 [53] was 5.73 µM (inactive) and the GI50 [54] was 2.09 µM (inactive). For the same compound, the GI50 [55] was 9.93 µM (inactive), the GI50 [56] was 4.59 µM (inactive) and the GI50 [57] was 1.77 µM (inactive). For the same compound, the GI50 [58] was 8.67 µM (inactive).
